These results are taken from US11820745B2, “PKC-activating compounds for the treatment of neurodegenerative diseases” (Synaptogenix, Inc., priority 2008, dated 2023).

For one data set, the target named is T1, PKCε (Homo sapiens, UniProt Q02156).
T1 construct: purchased Calbiochem
T1 sequence (Q02156 1-737): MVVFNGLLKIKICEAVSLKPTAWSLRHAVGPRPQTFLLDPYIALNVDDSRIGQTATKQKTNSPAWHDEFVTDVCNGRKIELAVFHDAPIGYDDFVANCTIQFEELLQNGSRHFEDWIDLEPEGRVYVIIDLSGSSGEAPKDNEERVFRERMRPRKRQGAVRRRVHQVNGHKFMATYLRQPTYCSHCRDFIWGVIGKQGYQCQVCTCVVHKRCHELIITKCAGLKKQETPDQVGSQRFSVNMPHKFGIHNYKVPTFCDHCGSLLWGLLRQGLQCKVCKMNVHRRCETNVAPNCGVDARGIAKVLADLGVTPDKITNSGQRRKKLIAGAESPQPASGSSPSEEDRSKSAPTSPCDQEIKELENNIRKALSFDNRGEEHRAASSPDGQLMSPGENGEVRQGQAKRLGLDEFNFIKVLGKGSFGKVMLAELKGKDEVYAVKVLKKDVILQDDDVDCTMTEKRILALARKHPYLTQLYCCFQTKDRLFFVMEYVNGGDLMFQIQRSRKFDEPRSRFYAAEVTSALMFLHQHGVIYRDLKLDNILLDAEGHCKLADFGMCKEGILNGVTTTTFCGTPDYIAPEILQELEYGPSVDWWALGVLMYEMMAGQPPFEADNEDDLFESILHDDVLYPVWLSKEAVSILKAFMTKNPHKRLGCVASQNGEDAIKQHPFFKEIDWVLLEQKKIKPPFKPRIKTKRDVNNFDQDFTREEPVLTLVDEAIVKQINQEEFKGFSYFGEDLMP
Kind of data set: Protein kinase C assay, purified/recombinant PKC epsilon (32P incorporation into histones). The format is biochemical. The procedure: Protein kinase C assay. Recombinant PKC (1 ng of alpha or epsilon isofonn) was mixed with the BR-101 (UCP-LA) in the presence of 10 micromoiar histones, 5 mM CaCl2, 1.2 μg/μl phosphatidyl-L-serine, 0.18 μg/μl 1,2-dioctanoyl-sn-glycerol (DAG), […], […] (pH 7.4), 0.8 tnIVI EDTA, 4 mM EGTA, 4% glycerol, 8 μg/ml aprotinin, 8 μ/ml leupeptin, and 2 mM benzamidine. 0.5 micro Ci [^y32P]ATP was added. The incubation mixture was incubated for 15 min at 37 degrees in a total volume of 10 microliters. The reaction was stopped by spotting the reaction mixtures on 1×2 cm strips of cellulose phosphate paper (Whatman P81) and immediately washing twice for 1 hr in 0.5% H3PO4. The cellulose phosphate strips were counted in a scintillation counter. In some experiments, phosphatidylserine, diacylglycerol, and/or calcium were removed.
Protein kinase C assay. Rat hippocampal cells were cultured and scraped in 0.2 ml homogenization buffer (20 triM Tris-HCl, pH 7.4, 50 mM NaF, 1 μg/ml leupeptin, and 0.1 mM PMSF) and homogenized by sonication in a Marsonix micro-probe sonicator (5 see, 10W). To measure PKC, 10 ul of cell homogenate or purified. PKC isozyme (purchased from Calbiochem) was incubated for 15 min at 37° C. in the presence of 10 μM histones, 4.89 mM CaCl2, 1.2 μg/μl phosphatidyl-L-serine, 0.18 μg/μl 1,2-dioctanoyl-sn-glycerol, 10 mM MgCl2, 20 mM HEPES (pH 7.4), 0.8 mM EDTA, 4 mM EGTA, 4% glycerol, 8 μg/ml aprotinin, 8 μg/ml leupeptin, and 2 mM benzamidine. 0.5 μCi [^γ-32P]ATP was added and ^32P-phosphoprotein formation was measured by adsorption onto phosphocellulose as described previously. Nelson and Alkon, J. Neurochemistry. 1995; 65: 2350-57. For measurements of activation by BR-101 (DCP-LA) and similar compounds, PKC activity was measured in the absence of diacylglycerol and phosphatidyl serine, as described by Kanno et al., and PKC δ, ε, η, and μ were measured in the absence of added EGTA and CaCl2, as described by Kanno et al., J. Lipid Res. 2006; 47: 1146-50. Low concentrations of Ca^2+ are used because high Ca^2+ interacts with the PKC phosphatidylserine binding site and prevents activation. For measurements of bryostatin activation, 1,2-diacylglycerol was omitted unless otherwise stated.
To determine their PKC isozyme specificity, the new compounds were preincubated with purified PKC for five minutes and the PKC activity was measured radiometrically.

The test system of a further data set is TACE. The data set can be described thus: TACE assay in N2a mouse neuroblastoma cells. Format: cell-based. The settings on record: FIG. 9a. The procedure:
TACE Assay. TACE was measured by incubating 5 μl cell homogenate, 3 μl buffer (50 mM Tris-HCl 7.4 plus 25 mM NaCl plus 4% glycerol), and 1 of 100 μM TACE substrate IV (Aβz-LAQAVRSSSR-DPa) (Calbiochem) for 20 min at 37° in 1.5-ml polypropylene centrifuge tubes (Jin et al., Anal Biochem. 2002; 302: 269-75). The reaction was stopped by cooling to 4° C. The samples were diluted to 1 ml and the fluorescence was rapidly measured (ex=320 nm, em=420 nm) in a Spex Fluorolog 2 spectrofluorometer.

A further data set deals with Aβ. The data set can be described thus: Aβ levels in N2a neuroblastoma cells transfected with human APPSwe/PSID (Aβ1-42 ELISA). The format is cell-based, mouse. Particulars: for levels of intracellular Aβ / levels of secreted Aβ: 24 h incubation, various concentrations; for levels of intracellular Aβ: FIG. 7a; for levels of secreted Aβ: FIG. 7b; for concentration dependence of Aβ inhibition: BR-101 and BR-111 up to 10 to 100 μM. As to the method: Cell culture. Rat hippocampal H19-71GF-IR cells (ATCC, Manassas, Va.) were plated onto poly-L-lysine coated plates and grown at 35° C. in DMEM/10% FCS for several days until about 50% coverage was obtained. The cells were then induced to differentiate into a neuronal phenotype by replacing the medium with 5 ml N2 medium containing 10 ng/ml basic fibroblast growth factor at 39° C. and grown in T-75 flasks at 37° C. Human SH-SY5Y neuroblastoma cells (ATCC) were cultured in 45% F12K/45% MEM/10% FCS. Mouse N2A neuroblastoma cells were cultured in DMEM/10% FCS without glutamine. Rat hippocampal neurons from 18-day-old embryonic
(§1) AB Measurement and Cell Viability Assay. Aβ was measured using an Aβ1-42 human fluorimetric ELISA kit (Invitrogen) according to the manufacturer's instructions. Results were measured in a Biotek Synergy HT microplate reader. AlamarBlue and CyQuant NF (Invitrogen) according to the manufacturer's instructions.
To measure the effects of PKCε activation on Aβ production, we used mouse neuro2a (N2a) neuroblastoma cells transfected with human APPSwe/PSID, which produce large quantities of Aβ. Petanceska et al., J Neurochem. 1996; 74: 1878-84. […] With bryostatin, which activates PKC by binding to the diacylglycerol-binding site, the inhibition was biphasic, with concentrations of 20 nM or higher producing no net effect. This may be explained by the ability of this class of PKC activators to downregulate PKC when used at high concentrations.
A general note: In an ELISA, binding on a coated surface is turned into a signal by an enzyme label.

Data set [1] deals with SH-SY5Y neuroblastoma cells. Kind of data set: Cell survival and proliferation (alamar Blue, CyQuant) in SH-SY5Y neuroblastoma cells. The format is cell-based, human. Particulars: for effect on proliferation: CyQuant staining, FIG. 11b; for effect on cell survival: alamar Blue, FIG. 11a. The procedure: as §1
A general note: Resazurin is reduced to fluorescent resorufin, in cell work by metabolically active cells.

As for `CCCCCC1CC1CC1CC1CCCCCCCC(=O)O` (stereo not shown) [BR-101, 8-[2-(2-pentyl-cyclopropylmethyl)-cyclopropyl]-octanoic acid], the “activation of PKCε” value on PKCε (at 10 μM, preincubated with purified PKC for five minutes) is given as “effective activator”. Also, the “activation of PKCε” value on PKCε (purified PKCε, lowest concentration tested (10 nM), FIG. 2) worked out at 2.75 fold. The TACE activity entry with TACE is recorded as “small increases”. Moreover, in the data set with Aβ, the “levels of intracellular Aβ” value is “markedly reduced”, the “levels of secreted Aβ” value is on record as “markedly reduced” and the “concentration dependence of Aβ inhibition” value was “monotonically increasing inhibition”. Also, in data set [1], the effect on proliferation result was “no effect” and the “effect on cell survival” value is given as “no effect”.
Regarding `CCC1CC1CC1CC1CC1CC1CC1CC1CC1CC1CC1CC1CCC(=O)OC` (stereo not shown) [BR-111, methyl-3-(2-((2-((2-((2-((2-((2-ethylcyclopropyl)methyl)cyclopropyl)methyl)cyclopropyl)methyl)-cyclopropyl)methyl)cyclopropyl)methyl)cyclopropyl)propanoate], on PKCε (FIG. 3), the “activation of purified PKCε” value was “activated purified PKCε to a similar extent” and the “concentration needed to activate PKC, times lower than for BR-101 (DCP-LA)” value is given as “approx. 100 times”. Besides, the TACE activity entry with TACE is reported as “small increases”. In the data set with Aβ, the “levels of intracellular Aβ” value is recorded as “markedly reduced”, the “levels of secreted Aβ” value is recorded as “markedly reduced” and the “concentration dependence of Aβ inhibition” value was “monotonically increasing inhibition”. In data set [1], the effect on proliferation result was “no effect” and the “effect on cell survival” value is recorded as “no effect”.
